Results: US20220323455A1, “FUSED HETEROCYCLIC DERIVATIVES AS ANTIVIRAL AGENTS” (priority 2019, published 2022)
pEC50: −log10 of the molar value.

Test system: HBV
Test: HBV replication inhibition assay (BDNA assay) in HepG2.2.15 cells
Type: cell-based, Hepatitis B virus
Settings: 6 days, encapsidated HBV DNA in supernatant
Experimental: HBV replication inhibition by the disclosed compounds were determined in cells infected or transfected with HBV or cells with stably integrated HBV, such as HepG2.2.15 cells (Sells et al. 1987). In this example, HepG2.2.15 cells were maintained in cell culture medium containing 10% fetal bovine serum (FBS), Geneticin, L-glutamine, penicillin and streptomycin. HepG2.2.15 cells were seeded in 96-well plates at a density of 40,000 cells/well and were treated with serially diluted compounds at a final DMSO concentration of 0.5% either alone or in combination by adding drugs in a checker box format. Cells were incubated with compounds for three days, after which medium was removed and fresh medium containing compounds was added to cells and incubated for another three days. At day 6, supernatant was removed and treated with DNase at 37° C. for 60 minutes, followed by enzyme inactivation at 75° C. for 15 minutes. Encapsidated HBV DNA was released from the virions and covalently linked HBV polymerase by incubating in lysis buffer (Affymetrix QS0010) containing 2.5 μg proteinase K at 50° C. for 40 minutes. HBV DNA was denatured by addition of 0.2 M NaOH and detected using a branched DNA (BDNA) QuantiGene assay kit according to manufacturer recommendation (Affymetrix). HBV DNA levels were also quantified using qPCR, based on amplification of encapsidated HBV DNA extraction with QuickExtraction Solution (Epicentre Biotechnologies) and amplification of HBV DNA using HBV specific PCR probes that can hybridize to HBV DNA and a fluorescently labeled probe for quantitation. In addition, cell viability of HepG2.2.15 cells incubated with test compounds alone or in combination was determined by using CellTitre-Glo reagent according to the manufacturer protocol (Promega). The mean background signal from wells containing only culture medium was subtracted from all other samples, and percent inhibition at each compound concentration was calculated by normalizing to signals from HepG2.2.15 cells treated with 0.5% DMSO using equation E1.
% inhibition(DMSOave−Xi)DMSOave×100% E1:
where DMSOave is the mean signal calculated from the wells that were treated with DMSO control (0% inhibition control) and Xi is the signal measured from the individual wells. EC50 values, effective concentrations that achieved 50% inhibitory effect, were determined by non-linear fitting using Graphpad Prism software (San Diego, Calif.) and equation E2.
Y=Ymin+(Ymax−Ymin)/(1+10(Log EC50−X)×HillSlope) E2:
where Y represents percent inhibition values and X represents the logarithm of compound concentrations.
Selected disclosed compounds were assayed in the HBV replication assay (BDNA assay), as described above, and a representative group of these active compounds is shown in Table 5.

In order of falling pEC50:
1. C[C@@H]1Cc2nn3c(c2CN1C(=O)Nc1ccc(F)c(C#N)c1)C(F)(F)CCC(F)(CO)C3 (single isomer, unassigned) [Example 114, (3R,8R*)—N-(3-Cyano-4-fluorophenyl)-8,11,11-trifluoro-8-(hydroxylmethyl)-3-methyl-3,4,8,9,10,11-hexahydro-1H-pyrido[4′,3′:3,4]pyrazolo[1,5-a]azepine-2(7H)-carboxamide]  9.00
2. C#CC1(O)CCC(F)(F)c2c3c(nn2C1)CCN(C(=O)Nc1ccc(F)c(C#N)c1)C3 (single isomer, unassigned) [Example 59, (R*)—N-(3-Cyano-4-fluorophenyl)-8-ethynyl-11,11-difluoro-8-hydroxy-3,4,8,9,10,11-hexahydro-1H-pyrido[4′,3′:3,4]pyrazolo[1,5-a]azepine-2(7H)-carboxamide]  8.30
3. N#Cc1cc(NC(=O)N2CCc3nn4c(c3C2)C(F)(F)CC(CO)CC4)ccc1F (single isomer, unassigned) [Example 136, (R*)—N-(3-Cyano-4-fluorophenyl)-11,11-difluoro-9-(hydroxymethyl) -3,4,8,9,10,11-hexahydro-1H-pyrido[4′,3′:3,4]pyrazolo[1,5-a]azepine-2(7H)-carboxamide]  8.30
4. O=C(Nc1ccnc(Br)c1F)N1CCc2nn3c(c2C1)C(F)(F)CCC(F)(CO)C3 (single isomer, unassigned) [Example 48, (R*)—N-(2-Bromo-3-fluoropyridin-4-yl)-8,11,11-trifluoro-8-(hydroxymethyl)-3,4,8,9,10,11-hexahydro-1H-pyrido[4′,3′:3,4]pyrazolo[1,5-a]azepine-2(7H)-carboxamide]  7.96
5. N#Cc1cc(NC(=O)N2CCc3nn4c(c3C2)C(F)(F)CCC(O)(COCC(F)F)C4)ccc1F (single isomer, unassigned) [Example 34, (S*)—N-(3-Cyano-4-fluorophenyl)-8-((2,2-difluoroethoxy)methyl)-11,11-difluoro-8-hydroxy-3,4,8,9,10,11-hexahydro-1H-pyrido[4′,3′:3,4]pyrazolo[1,5-a]azepine-2(7H)-carboxamide]  7.77
6. N#CCC1(O)CCC(F)(F)c2c3c(nn2C1)CCN(C(=O)Nc1ccnc(Br)c1F)C3 (single isomer, unassigned) [Example 41, (R*)—N-(2-Bromo-3-fluoropyridin-4-yl)-8-(cyanomethyl)-11,11-difluoro-8-hydroxy-3,4,89,10,11-hexahydro-1H-pyrido[4′,3′:3,4]pyrazolo[1,5-a]azepine-2(7H)-carboxamide]  7.28
7. C[C@@H]1Cc2nn3c(c2CN1C(=O)Nc1ccnc(Br)c1F)C(F)(F)CCC(C(C)(C)O)C3 (single isomer, unassigned) [Example 102, (3R,8S*)—N-(2-Bromo-3-fluoropyridin-4-yl)-1111-difluoro-8-(2-hydroxypropan-2-yl)-3-methyl-3,4,8,9,10,11-hexahydro-1H-pyrido[4′,3′:3,4]pyrazolo[1,5-a]azepine-2(7H)-carboxamide]  7.06
8. C[C@@H]1Cc2nn3c(c2CN1C(=O)Nc1ccnc(C(F)F)c1F)C(F)(F)CCC(O)(CF)C3 (single isomer, unassigned) [Example 88, (3R,8S*)—N-(2-(Difluoromethyl)-3-fluoropyridin-4-yl)-11,11-difluoro-8-(fluoromethyl)-8-hydroxy-3-methyl-3,4,8,9,10,11-hexahydro-1H-pyrido[4′,3′:3,4]pyrazolo[1,5-a]azepine-2(7H)-carboxamide]  6.93
9. O=C(Nc1ccnc(Br)c1F)N1CCc2nn3c(c2C1)C(F)(F)CCC(O)(CF)C3 (single isomer, unassigned) [Example 39, (R*)—N-(2-Bromo-3-fluoropyridin-4-yl)-11,11-difluoro-8-(fluoromethyl)-8-hydroxy-3,4,8,9,10,11-hexahydro-1H-pyrido[4′,3′:3,4]pyrazolo[1,5-a]azepine-2(7H)-carboxamide]  6.84
